Experimental data taken from patent US4001218A, “Penicillins” (Bayer Aktiengesellschaft, priority 1972, dated 1977).

Key:
Klebsiella K 10 = assay: MIC, test tube series dilution test, Klebsiella K 10; assay type: cell-based; conditions: 24 hours, 37°C
Staph. aureus 1756 = assay: MIC, test tube series dilution test, Staph. aureus 1756; assay type: cell-based, Staphylococcus aureus; conditions: Staph. aureus 1756; 24 hours, 37°C
E. coli 183/58 = assay: MIC, test tube series dilution test, E. coli 183/58; assay type: cell-based; conditions: 24 hours, 37°C
Staph. aureus 133 = assay type: cell-based, Staphylococcus aureus; conditions: Staph. aureus 133; 24 hours, 37°C
E. coli C 165 = assay: MIC, test tube series dilution test, E. coli C 165; assay type: cell-based; conditions: 24 hours, 37°C
E. coli 14 = assay type: cell-based; conditions: E. coli 14; 24 hours, 37°C
Proteus morg. 932 = assay: MIC, test tube series dilution test, Proteus morg. 932; assay type: cell-based; conditions: 24 hours, 37°C
Enterococcus 9790 = assay: MIC, test tube series dilution test, Enterococcus 9790; assay type: cell-based; conditions: 24 hours, 37°C
Psdm. aerug. F 41 = assay: MIC, test tube series dilution test, Psdm. aerug. F 41; assay type: cell-based, Pseudomonas aeruginosa; conditions: Psdm. aerug. F 41; 24 hours, 37°C
E. coli A 261 = assay: MIC, test tube series dilution test, E. coli A 261; assay type: cell-based; conditions: 24 hours, 37°C
Klebsiella 63 = assay: MIC, test tube series dilution test, Klebsiella 63; assay type: cell-based; conditions: Klebsiella 63; 24 hours, 37°C
Psdm. aerug. Walter = assay: MIC, test tube series dilution test, Psdm. aerug. Walter; assay type: cell-based, Pseudomonas aeruginosa; conditions: Psdm. aerug. Walter; 24 hours, 37°C
Proteus vulg. 1017 = assay type: cell-based, Proteus vulgaris; conditions: Proteus 1017; 24 hours, 37°C

| SMILES | MIC (Klebsiella K 10) | MIC (Staph. aureus 1756) | MIC (E. coli 183/58) | MIC (Staph. aureus 133) [U/ml] | MIC (E. coli C 165) | MIC (E. coli 14) | MIC (Proteus morg. 932) [U/ml] | MIC (Enterococcus 9790) | MIC (Psdm. aerug. F 41) | MIC (E. coli A 261) [U/ml] | MIC (Klebsiella 63) | MIC (Psdm. aerug. Walter) | MIC (Proteus vulg. 1017) |
| --- | --- | --- | --- | --- | --- | --- | --- | --- | --- | --- | --- | --- | --- |
| CC1(C)S[C@@H]2[C@H](NC(=O)[C@H](NC(=O)c3ccc(NC(=O)C4CC=CCC4)cc3)c3ccccc3)C(=O)N2[C@H]1C(=O)O (single isomer, unassigned) [Example 12, sodium D(-)-α-[4-(3-cyclohexene-1-carbonylamino-benzoylamino)]-benzylpenicillin] | 32 U/ml | 16 U/ml | 16 U/ml | < 1 | 8 U/ml | ~ 4 U/ml | > 256 | ~ 8 U/ml | 32 U/ml | > 256 | 32 U/ml | 32 U/ml | 16 U/ml |
| CC1(C)S[C@@H]2[C@H](NC(=O)[C@H](N)c3ccccc3)C(=O)N2[C@H]1C(=O)O [Ampicillin, D(-)-α-aminobenzylpenicillin, reference compound] | 128 U/ml | 256 U/ml | 200 U/ml | < 1 | 8 U/ml | > 1 U/ml | 256 | 4 U/ml | > 256 U/ml | 8 | 128 U/ml | > 256 U/ml | 256 U/ml |
| CC1(C)S[C@@H]2[C@H](NC(=O)[C@H](NC(=O)c3ccc(NC(=O)C4CCC4)cc3)c3ccccc3)C(=O)N2[C@H]1C(=O)O [Example 5, sodium D(-)-α-(4-cyclobutanecarbonylaminobenzoylamino)-benzylpenicillin] | 128 U/ml | 32 U/ml | 32 U/ml | < 1 | 16 U/ml | 8 U/ml | 256 | 16 U/ml | 64 U/ml | > 256 | 64 U/ml | 64 U/ml | 32 U/ml |
| CC1(C)S[C@@H]2[C@H](NC(=O)[C@H](NC(=O)c3ccc(NC(=O)CC4C=CCC4)cc3)c3ccccc3)C(=O)N2[C@H]1C(=O)[O-].[Na+] (stereo partly drawn) [Example 8, sodium D(-)-α-(4-[2-cyclopentene-1-acetamido-benzoylamino])-benzylpenicillin] | 64 U/ml | 8 U/ml | 16 U/ml | < 1 | 8 U/ml | – | 128 | 8 U/ml | 64 U/ml | > 256 | 32 U/ml | 64 U/ml | 64 U/ml |
| CC1(C)S[C@@H]2[C@H](NC(=O)[C@H](NC(=O)c3ccc(NC(=O)C4=CCCCC4)cc3)c3ccccc3)C(=O)N2[C@H]1C(=O)O [Example 11, sodium D(-)-α-[4-(1-cyclohexene-1-carbonylamino-benzoylamino)]-benzylpenicillin] | 64 U/ml | 128 U/ml | 8 U/ml | < 1 | 8 U/ml | 4 U/ml | 128 | 16 U/ml | 32 U/ml | > 256 | 32 U/ml | 32 U/ml | 64 U/ml |
| CC1(C)S[C@@H]2[C@H](NC(=O)[C@H](NC(=O)c3ccc(NC(=O)C4CCC=CCC4)cc3)c3ccccc3)C(=O)N2[C@H]1C(=O)O [Example 14, sodium D(-)-α-[4-(4-cycloheptene-1-carbonylamino-benzoylamino)]-benzylpenicillin] | 32 U/ml | 32 U/ml | 16 U/ml | < 1 | ~ 8 U/ml | < 1 U/ml | 256 | 8 U/ml | 32 U/ml | > 256 | 32 U/ml | 32 U/ml | 16 U/ml |
| COc1ccc(C(=O)Nc2ccc(C(=O)N[C@@H](C(=O)N[C@@H]3C(=O)N4[C@@H]3SC(C)(C)[C@@H]4C(=O)O)c3ccccc3)cc2)cc1 [Example 16] | 32 U/ml | 64 U/ml | 8 U/ml | < 1 | 8 U/ml | ~ 1 U/ml | 256 | 8 U/ml | 16 U/ml | > 256 | 16 U/ml | 16 U/ml | 64 U/ml |
| CC1(C)S[C@@H]2[C@H](NC(=O)[C@H](NC(=O)c3ccc(NC(=O)c4ccc(F)cc4)cc3)c3ccccc3)C(=O)N2[C@H]1C(=O)O [Example 17] | 64 U/ml | 32 U/ml | 8 U/ml | < 1 | ~ 8 U/ml | 4 U/ml | 128 | 16 U/ml | 32 U/ml | > 256 | 32 U/ml | 32 U/ml | ~ 32 U/ml |
| COc1cc(OC)cc(C(=O)Nc2ccc(C(=O)N[C@@H](C(=O)N[C@@H]3C(=O)N4[C@@H]3SC(C)(C)[C@@H]4C(=O)O)c3ccccc3)cc2)c1 [Example 18] | 64 U/ml | 16 U/ml | 8 U/ml | < 1 | 8 U/ml | 4 U/ml | 128 | 8 U/ml | 16 U/ml | > 256 | 64 U/ml | 16 U/ml | 64 U/ml |
| CC1(C)S[C@@H]2[C@H](NC(=O)[C@H](NC(=O)c3ccc(NC(=O)c4ccccc4)cc3)c3ccccc3)C(=O)N2[C@H]1C(=O)O [Example 25] | 64 U/ml | 64 U/ml | 8 U/ml | < 1 | 16 U/ml | 8 U/ml | 16 | 8 U/ml | 16 U/ml | > 256 | 32 U/ml | 32 U/ml | 128 U/ml |
| CC1(C)S[C@@H]2[C@H](NC(=O)[C@H](NC(=O)c3ccc(NC(=O)c4ccc(N=[N+]=[N-])cc4)cc3)c3ccccc3)C(=O)N2[C@H]1C(=O)O [Example 26] | 16 U/ml | 64 U/ml | < 1 U/ml | < 1 | 4 U/ml | < 1 U/ml | 8 | 16 U/ml | 16 U/ml | 256 | 4 U/ml | 16 U/ml | 16 U/ml |
| CC1(C)S[C@@H]2[C@H](NC(=O)[C@H](NC(=O)c3ccc(NC(=O)c4ccc([N+](=O)[O-])cc4)cc3)c3ccccc3)C(=O)N2[C@H]1C(=O)O [Example 28, sodium D(-)-α-[4-(4-nitrobenzoylamino)-benzoylamino]-benzylpenicillin] | 16 U/ml | ~ 32 U/ml | 4 U/ml | < 1 | 4 U/ml | < 1 U/ml | 128 | 4 U/ml | 16 U/ml | > 256 | 16 U/ml | 16 U/ml | 16 U/ml |
| CC1(C)S[C@@H]2[C@H](NC(=O)[C@H](NC(=O)c3ccc([N+](=O)[O-])cc3)c3ccccc3)C(=O)N2[C@H]1C(=O)O [Example 33, sodium D(-)-α-(4-nitro-benzoylamino)-benzylpenicillin] | 128 U/ml | 32 U/ml | 32 U/ml | < 1 | ~ 32 U/ml | ~ 8 U/ml | 256 | 4 U/ml | 64 U/ml | > 256 | 128 U/ml | – | 64 U/ml |
| CC1(C)S[C@@H]2[C@H](NC(=O)[C@H](NC(=O)c3ccc(NC(=O)CN=[N+]=[N-])cc3)c3ccccc3)C(=O)N2[C@H]1C(=O)O [Example 36] | 128 U/ml | 64 U/ml | 32 U/ml | < 1 | ~ 16 U/ml | 8 U/ml | – | 8 U/ml | 32 U/ml | > 256 | 64 U/ml | ~ 64 U/ml | 128 U/ml |
| CC1(C)S[C@@H]2[C@H](NC(=O)[C@H](NC(=O)c3cc(NC(=O)C4CCC4)ccc3Cl)c3ccccc3)C(=O)N2[C@H]1C(=O)O [Example 52] | 128-256 U/ml | 32-64 U/ml | 32-64 U/ml | < 1 | 128-256 U/ml | – | – | 32-64 U/ml | 128-256 U/ml | – | 128-256 U/ml | 128-256 U/ml | > 256 U/ml |
